Data as given in publication PMC5224920, “Assessing the mechanism and therapeutic potential of modulators of the human Mediator complex-associated protein kinases” (eLife, 2016).

Tested on: 12 single or co-culture in vitro tissue models of primary cells
Experiment: Culture/co-culture cell model panel, extracellular biomarkers (DiscoveRx); on CCL2/MCP-1: reference of the scale not given here; on CD141/Thrombomodulin: reference of the scale not given here; on CD142/Tissue Factor: reference of the scale not given here; on CD38: reference of the scale not given here; on CD40: reference of the scale not given here; on CD69: reference of the scale not given here; on CXCL8/IL-8: reference of the scale not given here; on CXCL9/MIG: reference of the scale not given here; on IL-1alpha: reference of the scale not given here; on M-CSF: reference of the scale not given here; on PBMC Cytotoxicity: reference of the scale not given here; on SRB: reference of the scale not given here; on sPGE2: reference of the scale not given here; on sTNF-alpha: reference of the scale not given here
Type: cell-based, human
[1] = HDF3CGF stimulated fibroblasts, 1.00E3 nM
[2] = HDF3CGF stimulated fibroblasts, 1.00E4 nM
[3] = HPNo Huvec+PBMC unstimulated, 1.00E0 nM
[4] = HPNo Huvec+PBMC unstimulated, 1.00E1 nM
[5] = HPNo Huvec+PBMC unstimulated, 1.00E2 nM
[6] = HPNo Huvec+PBMC unstimulated, 1.00E3 nM
[7] = HPNo Huvec+PBMC unstimulated, 1.00E4 nM

## CN1c2ccc(-c3cncc(Cl)c3N3CCC4(CC3)CNC(=O)O4)cc2CS1(=O)=O [CMPD2]
[1]
  EGFR: -0.052
  M-CSF: -0.096
  MMP-1: 0.008
  PAI-I: -0.00267
  Proliferation_72hr: -0.251
  SRB: 0.000361
  TIMP-1: -0.053
  TIMP-2: 0.124
[2]
  CCL2/MCP-1: -0.114
  CD54/ICAM-1: -0.054
  CD106/VCAM-1: 0.046
  CXCL8/IL-8: -0.128
  CXCL9/MIG: -0.076
  CXCL10/IP-10: 0.028
  CXCL11/I-TAC: -0.031
  Collagen I: 0.036
  Collagen III: 0.126
  EGFR: -0.055
  M-CSF: -0.106
  MMP-1: 0.00332
  PAI-I: -0.018
  Proliferation_72hr: -0.340
  SRB: -0.00651
  TIMP-1: -0.067
  TIMP-2: 0.106
[3]
  CCL2/MCP-1: 0.047
  CD38: 0.008
  CD40: -0.048
  CD106/VCAM-1: 0.122
  CD141/Thrombomodulin: 0.013
  CD142/Tissue Factor: 0.008
[4]
  CCL2/MCP-1: 0.017
  CD38: -0.016
  CD40: -0.068
  CD106/VCAM-1: 0.183
  CD141/Thrombomodulin: -0.006
  CD142/Tissue Factor: 0.035
[5]
  CCL2/MCP-1: 0.000304
  CD38: 0.014
  CD40: -0.055
  CD106/VCAM-1: 0.274
  CD141/Thrombomodulin: 0.005
  CD142/Tissue Factor: 0.003
[6]
  CCL2/MCP-1: 0.022
  CD38: -0.028
  CD40: -0.055
  CD106/VCAM-1: 0.205
  CD141/Thrombomodulin: 0.027
  CD142/Tissue Factor: -0.00853
[7]
  CCL2/MCP-1: 0.015
  CD38: -0.095
  CD40: -0.048
  CD106/VCAM-1: 0.147
  CD141/Thrombomodulin: 0.018
  CD142/Tissue Factor: -0.051
HPNo, 1.00E0 nM
  CD69: 0.011
  CXCL8/IL-8: 0.022
  CXCL9/MIG: 0.062
  M-CSF: 0.018
  SRB: -0.102
  sPGE2: 0.045
  sTNF-alpha: 0.140
HPNo, 1.00E1 nM
  CD69: -0.097
  CXCL8/IL-8: -0.006
  CXCL9/MIG: -0.00447
  M-CSF: -0.015
  SRB: -0.043
  sPGE2: 0.026
  sTNF-alpha: 0.045
HPNo, 1.00E2 nM
  CD69: 0.035
  CXCL8/IL-8: 0.008
  CXCL9/MIG: 0.020
  M-CSF: -0.038
  SRB: 0.011
  sPGE2: 0.045
  sTNF-alpha: 0.037
HPNo, 1.00E3 nM
  CD69: -0.007
  CXCL8/IL-8: 0.014
  CXCL9/MIG: -0.00342
  M-CSF: 0.051
  SRB: 0.00149
  sPGE2: 0.054
  sTNF-alpha: -0.000698
HPNo, 1.00E4 nM
  CD69: -0.024
  CXCL8/IL-8: 0.024
  CXCL9/MIG: -0.063
  M-CSF: -0.029
  SRB: -0.014
  sPGE2: 0.013
  sTNF-alpha: 0.230
LPS Huvec+PBMC, 1.00E0 nM
  CCL2/MCP-1: 0.007
  CD40: -0.057
  CD69: -0.008
  CD106/VCAM-1: 0.052
  CD141/Thrombomodulin: 0.041
  CD142/Tissue Factor: 0.093
  CXCL8/IL-8: -0.00258
  IL-1alpha: 0.057
  M-CSF: 0.019
  SRB: -0.024
  sPGE2: 0.070
  sTNF-alpha: 0.028
LPS Huvec+PBMC, 1.00E1 nM
  CCL2/MCP-1: -0.031
  CD40: -0.098
  CD69: -0.024
  CD106/VCAM-1: 0.019
  CD141/Thrombomodulin: 0.064
  CD142/Tissue Factor: 0.086
  CXCL8/IL-8: -0.035
  IL-1alpha: 0.041
  M-CSF: -0.003
  SRB: -0.065
  sPGE2: 0.126
  sTNF-alpha: 0.036
LPS Huvec+PBMC, 1.00E2 nM
  CCL2/MCP-1: -0.057
  CD40: -0.098
  CD69: 0.050
  CD106/VCAM-1: 0.052
  CD141/Thrombomodulin: 0.070
  CD142/Tissue Factor: 0.084
  CXCL8/IL-8: -0.122
  IL-1alpha: 0.033
  M-CSF: -0.006
  SRB: -0.068
  sPGE2: 0.155
  sTNF-alpha: 0.039
LPS Huvec+PBMC, 1.00E3 nM
  CCL2/MCP-1: -0.096
  CD40: -0.100
  CD69: 0.022
  CD106/VCAM-1: 0.055
  CD141/Thrombomodulin: 0.054
  CD142/Tissue Factor: 0.086
  CXCL8/IL-8: -0.148
  IL-1alpha: 0.00095
  M-CSF: -0.00124
  SRB: -0.066
  sPGE2: 0.173
  sTNF-alpha: 0.034
LPS Huvec+PBMC, 1.00E4 nM
  CCL2/MCP-1: -0.102
  CD40: -0.101
  CD69: 0.034
  CD106/VCAM-1: 0.035
  CD141/Thrombomodulin: 0.062
  CD142/Tissue Factor: 0.080
  CXCL8/IL-8: -0.154
  IL-1alpha: -0.070
  M-CSF: -0.021
  SRB: -0.070
  sPGE2: 0.182
  sTNF-alpha: -0.175
SAg, 1.00E0 nM
  CCL2/MCP-1: 0.032
  CD38: -0.023
  CD40: -0.085
  CD69: 0.033
  CXCL8/IL-8: 0.067
  CXCL9/MIG: -0.004
  PBMC Cytotoxicity: 0.038
  Proliferation: 0.024
  SRB: -0.013
SAg, 1.00E1 nM
  CCL2/MCP-1: -0.012
  CD38: -0.063
  CD40: -0.169
  CD69: 0.018
  CXCL8/IL-8: -0.038
  CXCL9/MIG: -0.018
  PBMC Cytotoxicity: 0.015
  Proliferation: 0.017
  SRB: -0.031
SAg, 1.00E2 nM
  CCL2/MCP-1: -0.066
  CD38: -0.040
  CD40: -0.131
  CD69: 0.026
  CXCL8/IL-8: -0.133
  CXCL9/MIG: -0.055
  PBMC Cytotoxicity: 0.00148
  Proliferation: 0.021
  SRB: -0.056
SAg, 1.00E3 nM
  CCL2/MCP-1: -0.072
  CD38: -0.069
  CD40: -0.122
  CD69: 0.050
  CXCL8/IL-8: -0.196
  CXCL9/MIG: -0.061
  PBMC Cytotoxicity: 0.00529
  Proliferation: 0.010
  SRB: -0.049
SAg, 1.00E4 nM
  CCL2/MCP-1: -0.111
  CD38: -0.058
  CD40: -0.144
  CD69: 0.006
  CXCL8/IL-8: -0.208
  CXCL9/MIG: -0.061
  PBMC Cytotoxicity: 0.00852
  Proliferation: -0.041
  SRB: -0.053
